Data on 40 compounds can be found in the supplement of paper PMC9265050, “Inhibition of RNA Binding in SND1 Increases the Levels of miR-1-3p and Sensitizes Cancer Cells to Navitoclax” (Cancers, 2022).

In the assay the test system is SW480. As to the kind of experiment: drug sensitivity score (DSS, integrated dose-response area); higher = more sensitive (stronger viability reduction); extreme values may be limits of the assay. Summed up:
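SW480 cells stably carrying doxycycline-inducible control or SND1-targeting shRNA were induced with 0.1 µg/mL doxycycline for 7 days. They were then plated at 1000 cells per well in 384-well plates holding 525 commercially available small-molecule inhibitors at five concentrations. Viability was read with CellTiter-Glo after 72 h. The drug sensitivity score integrates the area under a fitted non-linear dose–response model.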

Where [1] appears, read: shRNA: SND1 shRNA1 (SND1 silenced).
The mark [2] stands for this setting: shRNA: SND1 shRNA2 (SND1 silenced).
[3] abbreviates: shRNA: control shRNA (non-targeting).

The structures appear in SMILES notation.

`CCNC(=O)Nc1ccc(-c2nc3c(c(N4CCOC[C@@H]4C)n2)CCN(C2COC2)C3)cc1` [RG-7603] came in with a drug sensitivity score under setting [1] of 0.7 DSS, a drug sensitivity score under setting [2] of 1.3 DSS and a drug sensitivity score under setting [3] of 0.7 DSS.
Consider `Nc1cc(F)ccc1NC(=O)/C=C/c1cnn(C/C=C/c2ccccc2)c1` [RGFP966], for which the drug sensitivity score by setting is: under setting [1], 6.3 DSS; under setting [2], 6.3 DSS; under setting [3], 6.8 DSS.
Consider `Cc1cnc(NC(=O)Nc2cc(Br)c(C)cc2OC[C@@H]2CNCCO2)cn1` [Rabusertib], for which the drug sensitivity score by setting is: under setting [1], 1.8 DSS; under setting [2], 1.4 DSS; under setting [3], 2 DSS.
Regarding `C[C@@H]1C[C@H]2O[C@@H]2/C=C\C=C\C(=O)Cc2c(Cl)c(O)cc(O)c2C(=O)O1` [Radicicol], the drug sensitivity score under setting [1] was determined as 13.4 DSS, the drug sensitivity score under setting [2] stood at 12.1 DSS and the drug sensitivity score under setting [3] was 12.3 DSS.
Regarding `CC(C)(C)Cn1c(N)nc2ccc(-c3[nH]c(C(C)(C)C)nc3-c3ccc(F)cc3)nc21` [Ralimetinib], the drug sensitivity score reads like this: under setting [1], 1.7 DSS; under setting [2], 0 DSS; under setting [3], 0.2 DSS.
Compound `O=C(c1ccc(OCCN2CCCCC2)cc1)c1c(-c2ccc(O)cc2)sc2cc(O)ccc12` [Raloxifene] displayed a drug sensitivity score under setting [1] of 6.6 DSS, a drug sensitivity score under setting [2] of 4.1 DSS and a drug sensitivity score under setting [3] of 7.2 DSS.
For the compound `Cc1nc(=O)c2cc(CN(C)c3ccc(C(=O)N[C@@H](CCC(=O)O)C(=O)O)s3)ccc2[nH]1` [Raltitrexed], the drug sensitivity score by setting is: under setting [1], 5.2 DSS; under setting [2], 0 DSS; under setting [3], 4.8 DSS.
The matching figures for `CNC(=O)c1cc(Oc2ccc(NC(=O)Nc3cc(C(C)(C)C)nn3-c3ccc4ncccc4c3)c(F)c2)ccn1` [Rebastinib]: 0 DSS, 0 DSS and 0 DSS.
Consider `COc1cc(F)c(F)c(Nc2ccc(I)cc2F)c1NS(=O)(=O)C1(C[C@H](O)CO)CC1` [Refametinib], for which the drug sensitivity score worked out at 26.8 DSS under setting [1], 18 DSS under setting [2] and 11.1 DSS under setting [3].
For `CNC(=O)c1cc(Oc2ccc(NC(=O)Nc3ccc(Cl)c(C(F)(F)F)c3)c(F)c2)ccn1` [Regorafenib], in that order: 7.8 DSS, 7.9 DSS and 5.1 DSS.
Compound `CN(C)Cc1ccc(S(=O)(=O)n2ccc(/C=C/C(=O)NO)c2)cc1` [Resminostat] registered a drug sensitivity score under setting [1] of 8 DSS, a drug sensitivity score under setting [2] of 8.1 DSS and a drug sensitivity score under setting [3] of 6.1 DSS.
`CN(C)C(=O)c1cc2cnc(Nc3ccc(N4CCNCC4)cn3)nc2n1C1CCCC1` [Ribociclib]: the drug sensitivity score was 3.8 DSS under setting [1] and 4.9 DSS under setting [3].
For `CO[C@H]1C[C@@H]2CC[C@@H](C)[C@@](O)(O2)C(=O)C(=O)N2CCCC[C@H]2C(=O)O[C@H]([C@H](C)C[C@@H]2CC[C@@H](OP(C)(C)=O)[C@H](OC)C2)CC(=O)[C@H](C)/C=C(\C)[C@@H](O)[C@@H](OC)C(=O)[C@H](C)C[C@H](C)/C=C/C=C/C=C/1C` [Ridaforolimus], the drug sensitivity score by setting is: under setting [1], 5.9 DSS; under setting [3], 2.3 DSS.
The compound `COc1cc(OC)c(/C=C/S(=O)(=O)Cc2ccc(OC)c(NCC(=O)O)c2)c(OC)c1` [Rigosertib] yielded a drug sensitivity score under setting [1] of 15.1 DSS, a drug sensitivity score under setting [2] of 18.2 DSS and a drug sensitivity score under setting [3] of 16.4 DSS.
For `C=CC(=O)Nc1cccc(Nc2nc(Nc3ccc(N4CCN(C(C)=O)CC4)cc3OC)ncc2C(F)(F)F)c1` [Rociletinib], in that order: 7.2 DSS, 3.5 DSS and 7.5 DSS.
As for `O=C(CCCCCCNC(=O)c1cnc(N(c2ccccc2)c2ccccc2)nc1)NO` [Rocilinostat], the drug sensitivity score by setting is: under setting [1], 4 DSS; under setting [2], 7 DSS; under setting [3], 8.4 DSS.
The matching figures for `CS(=O)(=O)c1ccc(C2=C(c3ccccc3)C(=O)OC2)cc1` [Rofecoxib]: 0 DSS, 0 DSS and 0 DSS.
Regarding `C/C=C1\NC(=O)[C@H]2CSSCC/C=C/[C@H](CC(=O)N[C@H](C(C)C)C(=O)N2)OC(=O)[C@H](C(C)C)NC1=O` [Romidepsin], the drug sensitivity score is, setting by setting: under setting [1], 25.7 DSS; under setting [2], 25.1 DSS; under setting [3], 27.4 DSS.
For the compound `CN(C)C[C@@H]1CCn2cc(c3ccccc32)C2=C(C(=O)NC2=O)c2cn(c3ccccc23)CCO1` [Ruboxistaurin], the drug sensitivity score was found to be 8.1 DSS under setting [1], 7.8 DSS under setting [2] and 7.4 DSS under setting [3].
Regarding `CNCc1ccc(-c2[nH]c3cc(F)cc4c3c2CCNC4=O)cc1` [Rucaparib], the drug sensitivity score is, setting by setting: under setting [1], 0.3 DSS; under setting [2], 3 DSS; under setting [3], 4.6 DSS.
With `N#CC[C@H](C1CCCC1)n1cc(-c2ncnc3[nH]ccc23)cn1` [Ruxolitinib], the drug sensitivity score by setting is: under setting [1], 2.3 DSS; under setting [2], 5.6 DSS; under setting [3], 4.4 DSS.
Regarding `CC(C)N(CCCNC(=O)Nc1ccc(C(C)(C)C)cc1)C[C@H]1O[C@@H](n2cc(Br)c3c(N)ncnc32)[C@H](O)[C@@H]1O` [SGC0946], the drug sensitivity score was determined as 4.6 DSS under setting [1], 1.3 DSS under setting [2] and 4.3 DSS under setting [3].
For `COc1ccc(CCc2nc3cc(-c4c(C)noc4C)ccc3n2C[C@H](C)N2CCOCC2)cc1Cl` [SGC-CBP30], the drug sensitivity score worked out at 0.8 DSS under setting [1], 2.1 DSS under setting [2] and 2.3 DSS under setting [3].
Consider `CN1CCC(CNc2ccc3ncc(-c4cccc(OC(F)(F)F)c4)n3n2)CC1` [SGI-1776], for which the drug sensitivity score reads like this: under setting [1], 9.6 DSS; under setting [2], 9.5 DSS; under setting [3], 8.9 DSS.
As for `Cn1cc(-c2ccc3nnc(Sc4ccc5ncccc5c4)n3n2)cn1` [SGX-523], the drug sensitivity score runs as follows: under setting [1], 0 DSS; under setting [3], 0 DSS.
With `CN(CC(=O)N(Cc1ccc(C2CCCCC2)cc1)c1ccc(C(=O)O)cc1)S(=O)(=O)c1c(F)c(F)c(F)c(F)c1F` [SH-4-54], the drug sensitivity score is 9.8 DSS under setting [1], 8.6 DSS under setting [2] and 9.5 DSS under setting [3].
In turn, `CC(C)NC(=O)COc1cccc(-c2nc(Nc3ccc4[nH]ncc4c3)c3ccccc3n2)c1` [SLx-2119] registered a drug sensitivity score under setting [1] of 0 DSS, a drug sensitivity score under setting [2] of 0 DSS and a drug sensitivity score under setting [3] of 0 DSS.
With `CCc1c2c(nc3ccc(O)cc13)-c1cc3c(c(=O)n1C2)COC(=O)[C@]3(O)CC` [SN-38], the drug sensitivity score was 21.2 DSS under setting [1], 12.5 DSS under setting [2] and 18.7 DSS under setting [3].
On to `CC(C)(C)c1cnc(CSc2cnc(NC(=O)C3CCNCC3)s2)o1` [SNS-032], for which the drug sensitivity score is, setting by setting: under setting [1], 18.1 DSS; under setting [2], 15 DSS; under setting [3], 16.5 DSS.
In the case of `O=C(Nc1cccc(Cl)c1)Nc1ncc(CCNc2ncnc3ccsc23)s1` [SNS-314], the drug sensitivity score is, setting by setting: under setting [1], 4.8 DSS; under setting [2], 4.3 DSS; under setting [3], 5.6 DSS.
For `Cc1cc2c(C(=O)NC[C@H](C)c3ccccc3)c(O)c(O)cc2c(O)c1-c1c(C)cc2c(C(=O)NC[C@H](C)c3ccccc3)c(O)c(O)cc2c1O` [Sabutoclax], the drug sensitivity score is, setting by setting: under setting [1], 14.2 DSS; under setting [2], 13.3 DSS; under setting [3], 12.7 DSS.
`CNC(=O)CN1CCC(Oc2cc3c(Nc4cccc(Cl)c4F)ncnc3cc2OC)CC1` [Sapitinib] returned a drug sensitivity score under setting [1] of 0.1 DSS, a drug sensitivity score under setting [2] of 5 DSS and a drug sensitivity score under setting [3] of 0 DSS.
Consider `CN1CCN(CCOc2cc(OC3CCOCC3)c3c(Nc4c(Cl)ccc5c4OCO5)ncnc3c2)CC1` [Saracatinib], for which the drug sensitivity score is, setting by setting: under setting [1], 1.4 DSS; under setting [2], 1.3 DSS; under setting [3], 1.5 DSS.
Take `CC[C@H](CO)Nc1nc(NCc2ccccc2)c2ncn(C(C)C)c2n1` [Seliciclib]: the drug sensitivity score worked out at 2.1 DSS under setting [1], 0.7 DSS under setting [2] and 1.2 DSS under setting [3].
On to `O=C(/C=C\n1cnc(-c2cc(C(F)(F)F)cc(C(F)(F)F)c2)n1)NNc1cnccn1` [Selinexor], for which the drug sensitivity score is, setting by setting: under setting [1], 19.5 DSS; under setting [2], 19.3 DSS; under setting [3], 20.7 DSS.
With `Cn1cnc2c(F)c(Nc3ccc(Br)cc3Cl)c(C(=O)NOCCO)cc21` [Selumetinib], the drug sensitivity score turned out to be 19.1 DSS under setting [1], 8.9 DSS under setting [2] and 4.7 DSS under setting [3].
With `Cc1cc(C)c(/C=C2\C(=O)Nc3ccccc32)[nH]1` [Semaxanib], the drug sensitivity score reads like this: under setting [1], 0 DSS; under setting [2], 0 DSS; under setting [3], 0.6 DSS.
With `c1ccc2c(CCNc3ccc(Nc4ccncc4)cc3)c[nH]c2c1` [Serdemetan], the drug sensitivity score reads like this: under setting [1], 2.4 DSS; under setting [2], 1 DSS; under setting [3], 2.2 DSS.
Regarding `O=C(O)c1ccc2c(c1)nc(Nc1cccc(Cl)c1)c1ccncc12` [Silmitasertib], the drug sensitivity score runs as follows: under setting [1], 2.1 DSS; under setting [2], 2.1 DSS; under setting [3], 0.8 DSS.
Regarding `CCC(C)(C)C(=O)O[C@H]1C[C@@H](C)C=C2C=C[C@H](C)[C@H](CC[C@@H]3C[C@@H](O)CC(=O)O3)[C@H]21` [Simvastatin], the drug sensitivity score by setting is: under setting [1], 1.2 DSS; under setting [3], 4.5 DSS.
